Experimental data published in the SangsterLogP compilation.

Test: not given
In the case of `N#Cc1ccc(CC2CCCC2(O)Cn2cncn2)cc1` (stereo not given), the logP is reported as 1.7.
`OC1(Cn2cncn2)CCCC1Cc1ccc(Cl)cc1Cl` (stereo not given) showed a logP of 3.87.
`OC1(Cn2cncn2)CCCC1Cc1ccc(C(F)(F)F)cc1` (stereo not given) gave a logP of 3.07.
With `OC1(Cn2cncn2)CCCC1Cc1ccc(F)c(F)c1` (stereo not given) the logP was 2.51.
For `OC1(Cn2cncn2)CCCC1Cc1ccc(Cl)cc1` (stereo not given), the logP was 3.11.
`OC1(Cn2cncn2)CCCC1Cc1cccc(C(F)(F)F)c1` (stereo not given) gave a logP of 3.07.
Work on `OC1(Cn2cncn2)CCCC1Cc1cccc(Cl)c1` (stereo not given) yielded a logP of 2.98.
With `OC1(Cn2cncn2)CCCC1Cc1ccc(F)cc1` (stereo not given) the logP was 2.39.
Molecule `OC1(Cn2cncn2)CCCC1Cc1c(F)cccc1F` (stereo not given) has a logP of 2.6.
Molecule `OC1(Cn2cncn2)CCCC1Cc1c(F)c(F)c(F)c(F)c1F` (stereo not given) has a logP of 3.16.
Molecule `OC1(Cn2cncn2)CCCC1Cc1ccc(F)cc1F` (stereo not given) has a logP of 2.6.
`OC1(Cn2cncn2)CCCC1Cc1ccccc1Cl` (stereo not given) showed a logP of 2.95.
`OC1(Cn2cncn2)CCCC1Cc1ccc(Cl)cc1F` (stereo not given) showed a logP of 3.27.

Test: method code SF, from DOI: 10.1021/bk-1995-0606.ch013
Molecule `CCCOC/C(=N\c1ccc(Cl)cc1C(F)(F)F)n1ccnc1` has a logP of 4.5.
In the case of `CCC1CCC(Cc2ccc(F)cc2)C1(O)Cn1cncn1` (stereo not given), the logP is reported as 3.3.
In the case of `OC1(Cn2cncn2)CCCC1Cc1ccc(Br)cc1` (stereo not given), the logP is reported as 3.27.
In the case of `CC1(C)CCC(Cc2ccc(-c3ccccc3)cc2)C1(O)Cn1cncn1` (stereo not given), the logP is reported as 4.64.
`CC1(C)CCC(Cc2ccc(Cl)c(O)c2)C1(O)Cn1cncn1` (stereo not given) gave a logP of 3.16.
In the case of `OC1(Cn2cncn2)CCCC1Cc1ccc(-c2ccccc2)cc1` (stereo not given), the logP is reported as 3.92.
For `CCC1CCC(Cc2ccc(Br)cc2)C1(O)Cn1cncn1` (stereo not given), the logP was 4.18.
For `CC1(C)CCC(Cc2ccc(Br)cc2)C1(O)Cn1cncn1` (stereo not given), the logP was 3.99.
With `CC(C)(C)c1ccc(CC2CCCC2(O)Cn2cncn2)cc1` (stereo not given) the logP was 3.97.
Work on `CCC1CCC(Cc2ccc(-c3ccccc3)cc2)C1(O)Cn1cncn1` (stereo not given) yielded a logP of 4.83.
Molecule `CCC1CCC(Cc2ccc(Cl)cc2)C1(O)Cn1cncn1` (stereo not given) has a logP of 4.02.
`OC1(Cn2cncn2)CCCC1Cc1ccccc1` (stereo not given) showed a logP of 2.26.
For `CCC1CCC(Cc2ccc(C(C)(C)C)cc2)C1(O)Cn1cncn1` (stereo not given), the logP was 4.88.
Molecule `Cc1ccc(CC2CCC(C)(C)C2(O)Cn2cncn2)cc1` (stereo not given) has a logP of 3.43.
With `Cc1ccc(CC2CCCC2(O)Cn2cncn2)cc1` (stereo not given) the logP was 2.71.
Molecule `CC1(C)CCC(Cc2ccc(Cl)cc2F)C1(O)Cn1cncn1` (stereo not given) has a logP of 3.99.
With `CCC1CCC(Cc2ccc(Cl)cc2Cl)C1(O)Cn1cncn1` (stereo not given) the logP was 4.78.
